Series [1] can be described thus: Assessment of stability of baclofen hydrochloride solution (Example 3). Type of series: physicochemical. Conditions: water, NMP, propylene glycol, glycerin; 50° C. On the procedure:
Baclofen (10.0 g) was dissolved in 10% hydrochloric acid (20 g), the solvent in the prepared solution was frozen, and then the frozen product was dried in a lyophilizer overnight to give baclofen hydrochloride.
The resulting baclofen hydrochloride was dissolved in water, NMP (N-methylpyrrolidone), propylene glycol or glycerin to prepare each solution comprising baclofen hydrochloride in an amount of 0.25% by weight. Each of the prepared solutions was stored at 50° C. and the contexts of baclofen and ring products thereof in the solutions were measured after 1 and 2 weeks of the storage to assess the stability of baclofen.

Series [2] can be described thus: Solubility of baclofen in solvents. Type of series: physicochemical. The text has this:
The concentration of baclofen was insufficient to be used as an external preparation.

Structures can show the parent of a compound that is named as a salt.

Turning to `NCC(CC(=O)O)c1ccc(Cl)cc1` (stereo not shown) [Baclofen hydrochloride], the “stability when dissolved in the solvents” value in series [1] is listed as “stable”.
As to `NCC(CC(=O)O)c1ccc(Cl)cc1` (stereo not shown) [baclofen, 4-amino-3-(4-chloropehnyl)butanoic acid], the “solubility in 10% hydrochloric acid” value in series [2] (10% hydrochloric acid) is on record as “about 39%”. Further, in series [2] (lactic acid), the “solubility in lactic acid” value is listed as “about 33%”. Also, the solubility in water entry in series [2] (water) is “about 0.27%”.

The values are drawn from patent US20220016061A1, “Preparation Stabilized by Means of Nonaqueous Solvent” (MEDRx Co., Ltd., priority 2018, published 2022).
